System: Mus musculus
Assay: In vivo antitumor activity against P-388 leukemia in mice was determined at 25 mg/kg/day level
Format: functional

How did the T/C turn out when `COC1=C2C(N)Cc3cc(OC)c(O)cc3C2C[C@H](O)[C@@H]1O` (stereo partly specified) was run?
Its T/C is 146%.

Source: ChEMBL document CHEMBL1128877, “Isosinococuline, a novel antitumor morphinane alkaloid from Cocculus trilobus” (1995)
